Assay results taken from patent US11278528B2, “Activator of peroxisome proliferator-activated receptor” (Nippon Chemiphar Co., Ltd., priority 2017, dated 2022).

How the values were obtained:
[1] = molecular target: T1, PPARα (Homo sapiens, UniProt Q07869); test: Measurement of agonist activity against PPARα (EnBio RCAS for PPARα kit, PPARA-CBP); assay type: biochemical; conditions: evaluation concentration 10 μM, ratio to maximal response well (GW7647 0.5 μM); for activation at 10 µM: read-out: Binding ratio (%) @ 10 μM
T1 construct: purchased Fujikura Kasei Co., Ltd. PPARA-CBP
T1 sequence (Q07869 1-468): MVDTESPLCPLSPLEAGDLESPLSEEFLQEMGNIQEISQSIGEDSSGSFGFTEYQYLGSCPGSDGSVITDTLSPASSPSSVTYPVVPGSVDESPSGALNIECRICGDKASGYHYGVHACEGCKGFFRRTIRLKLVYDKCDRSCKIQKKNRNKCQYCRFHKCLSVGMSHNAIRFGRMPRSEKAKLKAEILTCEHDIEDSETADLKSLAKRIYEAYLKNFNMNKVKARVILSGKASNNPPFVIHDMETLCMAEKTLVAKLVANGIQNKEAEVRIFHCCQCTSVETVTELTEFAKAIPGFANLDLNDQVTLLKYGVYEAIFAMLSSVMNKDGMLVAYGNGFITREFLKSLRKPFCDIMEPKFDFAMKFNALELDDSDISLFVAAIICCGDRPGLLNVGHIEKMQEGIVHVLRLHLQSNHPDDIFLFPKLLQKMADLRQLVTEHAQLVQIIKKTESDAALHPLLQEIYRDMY
Method: (1) Measurement of Agonist Activity against PPARα
For the measurement of agonist activity against PPARα, the absorbance was measured according to the kit protocol using EnBio RCAS for PPARα kit (PPARA-CBP, Fujikura Kasei Co., Ltd.). A sample was dissolved in dimethylsulfoxide and added to a 96-well plate so as to have an evaluation concentration of 10 μM. GW7647 was added to a maximal response well so as to have a concentration of 0.5 μM. Dimethylsulfoxide was added to background wells. After subtracting the absorbance of the background well from the absorbance of each sample addition well, the ratio of each sample addition well to the maximal response well was calculated to evaluate the agonist activity (Binding ratio, %) against PPARα. Note that the sample addition wells and the background wells were duplicated, and the maximal response well was quadruplicated. As a positive control, 10 μM of a known PPARα agonist; Fenofibric acid (Tokyo Chemical Industry Co., Ltd.) was used.

[2] = test system: NAFLD model rats fed with a methionine/choline-deficient (MCD) diet; test: Non-alcoholic fatty liver disease (NAFLD) model rats induced by methionine/choline-deficient diet; assay type: in vivo, Wistar rats; conditions: for Plasma ALT as an indicator of liver damage: versus Vehicle group (FIG. 1A); for Liver TG level as an indicator of fatty liver: versus Vehicle group (FIG. 1B)
Source text: (1) Evaluation Using Non-Alcoholic Fatty Liver Disease (NAFLD) Model Rats Induced by Methionine/Choline-Deficient Diet
As a NAFLD model, rats fed with a methionine/choline-deficient (MCD) diet were used to perform experiments. The MCD diet-fed model is widely used as a model for NAFLD/NASH.
Wistar rats (male, 8 weeks old, Charles River Laboratories Japan, Inc.) were fed with an MCD diet (A02082002B, Research Diets, Inc.) for 5 weeks. From the time of feeding the above diet for 1 week, the rats were divided into a Vehicle group, a COMPOUND 2 (50 mg/kg) group, and a Fenofibrate (100 mg/kg) group so that there was no difference in body weight between the groups (n=4 in each of the groups). The Normal group was fed with an MCS diet as a control diet for the MCD diet (A02082003B, Research Diets, Inc.) for the same period. The administration volume was 10 mL/kg, a 1% methylcellulose solution was repeatedly orally administered to the Vehicle group and the Normal group, and a COMPOUND 2 solution and a Fenofibrate solution were repeatedly orally administered to the COMPOUND 2 group and the Fenofibrate group, respectively, once a day for 4 weeks.
The day after the end of the final administration, blood was collected from the posterior vena cava under non-fasting conditions and isoflurane inhalation anesthesia, and plasma was collected. Further, the liver was removed and a part thereof was cryopreserved. Plasma ALT was measured by the JSCC standardized method. Triglyceride (TG) in the liver was extracted from the liver with a chloroform/methanol mixed solution (2:1, v/v), evaporated to dryness, and dissolved in 2-propanol, and then the amount was measured using Triglyceride E Test Wako. The results were each expressed as a mean value±standard deviation. Significant difference was tested between the Normal group and the Vehicle group using the Welch's t test (unpaired) (#: p<0.05 and ###: p<0.001), and significant difference was tested among the Vehicle group and the test substance administration groups using the Dunnett's test (*: p<0.05, **: p<0.01, and ***: p<0.001).

[3] = test system: ZDF rats with low urinary pH; test: Low urinary pH improving effect in diabetic model Zucker Diabetic Fatty (ZDF) rats; assay type: in vivo, ZDF (Lepr^fa/Lepr^fa) rats; conditions: 24 h urine, versus Vehicle group (FIG. 2)
Method: (1) Evaluation Using Diabetic Models, Zucker Diabetic Fatty (ZDF) Rats
In this example, the low urinary pH improving effect of COMPOUND 2 was evaluated using diabetic model animals; ZDF rats with low urinary pH. Verinurad; a known URAT1 inhibitor was evaluated as a comparative control compound (the PPARα activating effect of Verinurad was evaluated by the method described in Test Example 1, and as a result, the binding ratio at an evaluation concentration of 10 μM was 3.80%, and no effect was confirmed).
ZDF (Lepr^fa/Lepr^fa) rats (male, 7 weeks old at the start of administration, Charles River Laboratories Japan, Inc.) were divided into a Vehicle group, a COMPOUND 2 (25 mg/kg) group, a COMPOUND 2 (50 mg/kg) group, and a Verinurad (50 mg/kg) group so that there was no difference in body weight between the groups (n=5 in each of the groups). As a Lean group, ZDF (Lean) rats, i.e., control animals of ZDF (Lepr^fa/Lepr^fa) rats, were used (n=5). The administration volume was 10 mL/kg, a 1% methylcellulose solution was repeatedly orally administered to the Vehicle group and the Lean group, and a COMPOUND 2 solutions and a Verinurad solution were repeatedly orally administered to the COMPOUND 2 groups and the Verinurad group, respectively, once a day for 15 days.
During the administration period, the pH of a urine sample obtained by urine collection was measured using a compact pH meter (B-712, Horiba, Ltd.). Urine collection was performed 6 days before the start of administration (pre), on the 1st day, 7th day and 14th day of administration, and urine was collected in a metabolic cage for 24 hours. The results were each expressed as a mean value±standard deviation. At each time point, significant difference was tested between the Lean group and the Vehicle group using the Student's t test (unpaired) (###: p<0.001). After one-way analysis of variance, significant difference was tested among the Vehicle group and the test substance administration groups using the Dunnett's test (*: p<0.05, **: p<0.01, and ***: p<0.001).

[4] = 50 mg/kg oral once a day for 4 weeks
[5] = 50 mg/kg oral once a day for 15 days
[6] = 100 mg/kg oral once a day for 4 weeks

activation at 10 µM [1]	Compound	also measured
49.2%	CC(C)(Sc1ccc2ncsc2c1-c1ccc(C#N)cc1)C(=O)O [COMPOUND 1, 2-[[7-(4-cyanophenyl)benzo[d]thiazol-6-yl]thio]-2-methylpropanoic acid]	–
69.8%	CC(C)(Sc1ccc2cnsc2c1-c1ccc(C#N)cc1)C(=O)O [COMPOUND 2, 2-[[7-(4-cyanophenyl)benzo[d]isothiazol-6-yl]thio]-2-methylpropanoic acid]	Plasma ALT as an indicator of liver damage [2, 4]: significantly lower values than the Vehicle group; Liver TG level as an indicator of fatty liver [2, 4]: significantly lower; Urine pH ([3]; 25 mg/kg oral once a day for 15 days): significantly increased from the 7th day of administration; Urine pH [3, 5]: significantly increased from the 1st day of administration
16%	CC(C)(Oc1cc2ncsc2cc1-c1ccc(C#N)cc1)C(=O)O [COMPOUND 3, 2-[[6-(4-cyanophenyl)benzo[d]thiazol-5-yl]oxy]-2-methylpropanoic acid]	–
52.6%	CC(C)(Sc1ccc2ccccc2c1-c1ccc(C#N)cc1)C(=O)O [COMPOUND 4, 2-[[1-(4-cyanophenyl)naphthalen-2-yl]thio]-2-methylpropanoic acid]	–
41.8%	Cc1nsc2c(-c3ccc(C#N)cc3)c(SC(C)(C)C(=O)O)ccc12 [COMPOUND 5, 2-[[7-(4-cyanophenyl)-3-methylbenzo[d]isothiazol-6-yl]thio]-2-methyl propanoic acid]	–
24.7%	CC(C)(Sc1ccc2nc(C(F)(F)F)sc2c1-c1ccc(C#N)cc1)C(=O)O [COMPOUND 6, 2-[[7-(4-cyanophenyl)-2-(trifluoromethyl)benzo[d]thiazol-6-yl]thio]-2-methylpropanoic acid]	–
47%	Cc1nc2ccc(SC(C)(C)C(=O)O)c(-c3ccc(C#N)cc3)c2s1 [COMPOUND 7, 2-[[7-(4-cyanophenyl)-2-methylbenzo[d]thiazol-6-yl]thio]-2-methylpropanoic acid]	–
29.9%	N#Cc1ccc(-c2c(SC3(C(=O)O)CCC3)ccc3cnsc23)cc1 [COMPOUND 8, 1-[[7-(4-cyanophenyl)benzo[d]isothiazol-6-yl]thio]cyclobutan-1-carboxylic acid]	–
87%	CC(C)(Sc1ccc2cnsc2c1-c1ccc(C(F)(F)F)cc1)C(=O)O [COMPOUND 9, 2-methyl-2-[[7-[4-(tri-fluoromethyl)phenyl]benzo[d]iso-thiazol-6-yl]thio]propanoic acid]	–
71.3%	CC(C)(Sc1cc(F)c2cnsc2c1-c1ccc(C#N)cc1)C(=O)O [COMPOUND 10, 2-[[7-(4-cyanophenyl)-4-fluorobenzo[d]isothiazol-6-yl]thio]-2-methylpropanoic acid]	–
21.7%	N#Cc1ccc(-c2c(SC3(C(=O)O)CCCC3)ccc3cnsc23)cc1 [COMPOUND 11, 1-[[7-(4-cyanophenyl)benzo[d]isothiazol-6-yl]thio]cyclopentan-1-carboxylic acid]	–
92.6%	CC(C)(Sc1ccc2cnsc2c1-c1ccc(Cl)cc1)C(=O)O [COMPOUND 12, 2-[[7-(4-chlorophenyl)benzo[d]isothiazol-6-yl]thio]-2-methylpropanoic acid]	–
20.8%	Cc1cc(-c2c(SC(C)(C)C(=O)O)ccc3cnsc23)ccc1C#N [COMPOUND 13, 2-[[7-(4-cyano-3-methylphenyl)benzo[d]isothiazol-6-yl]thio]-2-methylpropanoic acid]	–
26.5%	Cc1nsc2c(-c3ccc(C#N)cc3)c(SC3(C(=O)O)CCC3)ccc12 [COMPOUND 14, 1-[[7-(4-cyanophenyl)-3-methylbenzo[d]isothiazol-6-yl]thio]cyclobutan-1-carboxylic acid]	–
59%	CCC(CC)(Sc1ccc2cnsc2c1-c1ccc(C#N)cc1)C(=O)O [COMPOUND 15, 2-[[7-(4-cyanophenyl)benzo[d]isothiazol-6-yl]thio]-2-ethylbutanoic acid]	–
11.8%	CC(C)(C)C(Sc1ccc2cnsc2c1-c1ccc(C#N)cc1)C(=O)O (stereo not shown) [COMPOUND 16, 2-[[7-(4-cyanophenyl)benzo[d]isothiazol-6-yl]thio]-3,3-dimethylbutanoic acid]	–
–	CC(C)(Oc1ccc(C(=O)c2ccc(Cl)cc2)cc1)C(=O)O [Fenofibric acid, 2-[4-(4-chlorobenzoyl)phenoxy]-2-methylpropionic acid, reference compound]	Binding ratio (%) @ 10 μM [1]: 50.46%
3.8%	CC(C)(Sc1ccncc1-c1ccc(C#N)c2ccccc12)C(=O)O [Verinurad, reference compound]	Urine pH [3, 5]: no low urinary pH improving effect was observed throughout the administration period
–	fenofibrate [reference compound]	Plasma ALT as an indicator of liver damage [2, 6]: significantly lower values than the Vehicle group; Liver TG level as an indicator of fatty liver [2, 6]: significantly lower
